Measurements reported in the NIST ThermoML archive (doi:10.1016/j.fluid.2014.11.024).
± gives the expanded uncertainty stated by the source.

Conditions: 101.33 kPa, Liquid; for viscosity: Falling or rolling sphere viscometry; for speed of sound: Sing-around technique in a fixed-path interferometer; for mass density: Vibrating tube method

C[NH+]1CCCC1=O.O=C[O-] [N-methyl-2-oxopyrrolidinium formate]
Conditions	mass density [kg/m3]	speed of sound [m/s]	viscosity [mPa·s]
293.15 K	1076.38 ± 1	1496 ± 2.3	2.451 ± 0.032
298.15 K	1071.66 ± 0.99	1478.3 ± 2.3	2.217 ± 0.029
303.15 K	1066.93 ± 0.98	1460.4 ± 2.3	2.02 ± 0.027
308.15 K	1062.2 ± 0.97	1442.5 ± 2.3	1.85 ± 0.025
313.15 K	1057.45 ± 0.96	1424.8 ± 2.3	1.705 ± 0.023
318.15 K	1052.71 ± 0.95	1407.2 ± 2.3	1.58 ± 0.022
323.15 K	1047.96 ± 0.94	1389.7 ± 2.3	1.472 ± 0.021
328.15 K	1043.2 ± 0.93	1372.2 ± 2.3	1.377 ± 0.02
333.15 K	1038.43 ± 0.92	1354.8 ± 2.3	1.295 ± 0.019
338.15 K	1033.66 ± 0.91	1337.6 ± 2.3	1.223 ± 0.018
343.15 K	1028.88 ± 0.9	1320.5 ± 2.3	1.159 ± 0.017

CCC(=O)[O-].C[NH+]1CCCC1=O [N-methyl-2-oxopyrrolidinium propionate]
Conditions	mass density [kg/m3]	speed of sound [m/s]	viscosity [mPa·s]
293.15 K	1032.46 ± 0.9	1460.3 ± 2.3	3.136 ± 0.04
298.15 K	1027.86 ± 0.89	1442.6 ± 2.3	2.801 ± 0.036
303.15 K	1023.32 ± 0.89	1424.5 ± 2.3	2.518 ± 0.032
308.15 K	1018.74 ± 0.88	1406.4 ± 2.3	2.28 ± 0.03
313.15 K	1014.16 ± 0.87	1388.4 ± 2.3	2.075 ± 0.027
318.15 K	1009.56 ± 0.86	1370.6 ± 2.3	1.9 ± 0.025
323.15 K	1004.97 ± 0.85	1352.8 ± 2.3	1.75 ± 0.024
328.15 K	1000.36 ± 0.84	1335.1 ± 2.3	1.619 ± 0.022
333.15 K	995.75 ± 0.83	1317.5 ± 2.3	1.506 ± 0.021
338.15 K	991.12 ± 0.83	1300 ± 2.3	1.407 ± 0.02
343.15 K	986.49 ± 0.82	1282.6 ± 2.3	1.32 ± 0.019

CCCC(=O)[O-].C[NH+]1CCCC1=O [N-methyl-2-oxopyrrolidinium butanoate]
Conditions	mass density [kg/m3]	speed of sound [m/s]	viscosity [mPa·s]
293.15 K	1010.56 ± 0.86	1435.6 ± 2.3	3.996 ± 0.051
298.15 K	1006.11 ± 0.85	1418 ± 2.3	3.526 ± 0.045
303.15 K	1001.65 ± 0.84	1400.1 ± 2.3	3.136 ± 0.04
308.15 K	997.18 ± 0.83	1382.2 ± 2.3	2.809 ± 0.036
313.15 K	992.71 ± 0.83	1364.4 ± 2.3	2.531 ± 0.033
318.15 K	988.24 ± 0.82	1346.7 ± 2.3	2.295 ± 0.03
323.15 K	983.74 ± 0.82	1328.5 ± 2.3	2.093 ± 0.028
328.15 K	979.25 ± 0.81	1311 ± 2.3	1.918 ± 0.026
333.15 K	974.76 ± 0.81	1293.5 ± 2.3	1.771 ± 0.024
338.15 K	970.26 ± 0.8	1276.3 ± 2.3	1.639 ± 0.022
343.15 K	965.75 ± 0.8	1259.1 ± 2.3	1.527 ± 0.021

CCCCCC(=O)[O-].C[NH+]1CCCC1=O [N-methyl-2-oxopyrrolidinium hexanoate]
Conditions	mass density [kg/m3]	speed of sound [m/s]	viscosity [mPa·s]
293.15 K	983.01 ± 0.82	1431.4 ± 2.3	5.211 ± 0.066
298.15 K	978.81 ± 0.81	1414.2 ± 2.3	4.549 ± 0.058
303.15 K	974.6 ± 0.81	1396.7 ± 2.3	3.998 ± 0.051
308.15 K	970.39 ± 0.8	1379.3 ± 2.3	3.543 ± 0.045
313.15 K	966.18 ± 0.8	1362 ± 2.3	3.163 ± 0.04
318.15 K	961.96 ± 0.79	1344.8 ± 2.3	2.843 ± 0.036
323.15 K	957.74 ± 0.79	1327.6 ± 2.3	2.57 ± 0.033
328.15 K	953.51 ± 0.78	1310.6 ± 2.3	2.336 ± 0.03
333.15 K	949.28 ± 0.78	1293.7 ± 2.3	2.135 ± 0.028
338.15 K	945.04 ± 0.77	1276.8 ± 2.3	1.96 ± 0.026
343.15 K	940.79 ± 0.77	1260.2 ± 2.3	1.808 ± 0.024

CCCCC(=O)[O-].C[NH+]1CCCC1=O [N-methyl-2-oxopyrrolidinium pentanoate]
Conditions	mass density [kg/m3]	speed of sound [m/s]	viscosity [mPa·s]
293.15 K	994.31 ± 0.83	1427.7 ± 2.3	4.448 ± 0.056
298.15 K	990.01 ± 0.83	1410.5 ± 2.3	3.91 ± 0.05
303.15 K	985.7 ± 0.82	1393 ± 2.3	3.465 ± 0.044
308.15 K	981.38 ± 0.82	1375.4 ± 2.3	3.093 ± 0.039
313.15 K	977.06 ± 0.81	1358 ± 2.3	2.779 ± 0.036
318.15 K	972.73 ± 0.81	1340.7 ± 2.3	2.513 ± 0.032
323.15 K	968.39 ± 0.8	1323 ± 2.3	2.284 ± 0.03
328.15 K	964.05 ± 0.8	1305.7 ± 2.3	2.087 ± 0.028
333.15 K	959.71 ± 0.79	1288.7 ± 2.3	1.917 ± 0.026
338.15 K	955.36 ± 0.79	1271.8 ± 2.3	1.769 ± 0.024
343.15 K	951.01 ± 0.78	1255 ± 2.3	1.64 ± 0.022

CC(=O)[O-].C[NH+]1CCCC1=O [N-methyl-2-oxopyrrolidinium acetate]
Conditions	mass density [kg/m3]	speed of sound [m/s]	viscosity [mPa·s]
293.15 K	1050.71 ± 0.94	1491.5 ± 2.3	2.933 ± 0.037
298.15 K	1046.06 ± 0.93	1473.5 ± 2.3	2.622 ± 0.034
303.15 K	1041.42 ± 0.92	1455.1 ± 2.3	2.364 ± 0.031
308.15 K	1036.77 ± 0.91	1436.9 ± 2.3	2.144 ± 0.028
313.15 K	1032.12 ± 0.9	1418.7 ± 2.3	1.959 ± 0.026
318.15 K	1027.46 ± 0.89	1400.6 ± 2.3	1.799 ± 0.024
323.15 K	1022.79 ± 0.88	1382.6 ± 2.3	1.66 ± 0.023
328.15 K	1018.12 ± 0.87	1364.7 ± 2.3	1.54 ± 0.021
333.15 K	1013.44 ± 0.86	1346.9 ± 2.3	1.435 ± 0.02
338.15 K	1008.75 ± 0.86	1329.2 ± 2.3	1.344 ± 0.019
343.15 K	1004.05 ± 0.85	1311.5 ± 2.3	1.264 ± 0.018
